From patent US20230365546A1, “5-SUBSTITUTED INDOLE 3-AMIDE DERIVATIVES, PREPARATION METHOD AND USE THEREOF” (ORIGIANT PHARMACEUTICAL CO., LTD, priority 2020, published 2023)
Like-named read-outs stand apart in the source and are kept apart here.

Tests used:
STK32C(h) = STK32C(h) (Homo sapiens (Human), UniProt Q86UX6); experiment: Kinase Profiler 10 μM panel
Method: (§1) In vitro kinase assays were conducted using Kinase Profiler services provided by Eurofins. The experimental method was as follows: the small molecule compound to be tested (0.001-10 μM), the protein kinase to be tested were incubated with a buffer containing substrate, 10 mM magnesium acetate, and [γ-^33P-ATP], the reaction was started by adding Mg\TPmix, after incubation for a period of time at room temperature, a 3% phosphate solution was added to the buffer to stop the reaction. Subsequently, 10 μL of the reaction mixture was quantitatively pipetted onto P30 filter paper, which was washed three times with 75 mM phosphate solution and then once with methanol. The P30 filter paper was air-dried and scintillation fluid was added for scintillation counting.

ULK1(h) = ULK1(h) (Homo sapiens (Human), UniProt O75385); experiment: Kinase Profiler 10 μM panel
Method: as §1

CaMKK2(h) = CaMKK2(h) (Homo sapiens (Human), UniProt Q96RR4); experiment: Kinase Profiler 10 μM panel
Method: as §1

BTK(h) = BTK(h) (Homo sapiens (Human), UniProt Q06187); experiment: Kinase Profiler 10 μM panel
Method: as §1

MEK2(h) = MEK2(h) (Homo sapiens (Human), UniProt P36507); experiment: Kinase Profiler 10 μM panel
Method: as §1

EGFR(L861Q)(h) = EGFR(L861Q)(h) (Homo sapiens (Human), UniProt P00533, L861Q); experiment: Kinase Profiler 10 μM panel
Method: as §1

DYRK3(h) = DYRK3(h) (Homo sapiens (Human), UniProt O43781); experiment: Kinase Profiler 10 μM panel
Method: as §1

MSK2(h) = MSK2(h) (Homo sapiens (Human), UniProt O75676); experiment: Kinase Profiler 10 μM panel
Method: as §1

MKK4(m) = MKK4(m) (Mus musculus (Mouse), UniProt P47809); experiment: Kinase Profiler 10 μM panel
Method: as §1

Met(D1246N)(h) = Met(D1246N)(h) (Homo sapiens (Human), UniProt P08581, D1228N); experiment: Kinase Profiler 10 μM panel
Method: as §1

IKKϵ(h) = IKKϵ(h) (Homo sapiens (Human), UniProt Q14164); experiment: Kinase Profiler 10 μM panel
Method: as §1

MAPKAP-K2(h) = MAPKAP-K2(h) (Homo sapiens (Human), UniProt P49137); experiment: Kinase Profiler 10 μM panel
Method: as §1

EphB1(h) = EphB1(h) (Homo sapiens (Human), UniProt P54762); experiment: Kinase Profiler 10 μM panel
Method: as §1

DDR2(h) = DDR2(h) (Homo sapiens (Human), UniProt Q16832); experiment: Kinase Profiler 10 μM panel
Method: as §1

Hck(h) = Hck(h) (Homo sapiens (Human), UniProt P08631); experiment: Kinase Profiler 10 μM panel
Method: as §1

HRI(h) = HRI(h) (Homo sapiens (Human), UniProt Q9BQI3); experiment: Kinase Profiler 10 μM panel
Method: as §1

SAPK3(h) = SAPK3(h) (Homo sapiens (Human), UniProt P53778); experiment: Kinase Profiler 10 μM panel
Method: as §1

ROCK-II(h) = ROCK-II(h) (Homo sapiens (Human), UniProt O75116); experiment: Kinase Profiler 10 μM panel
Method: as §1

NEK2(h) = NEK2(h) (Homo sapiens (Human), UniProt P51955); experiment: Kinase Profiler 10 μM panel
Method: as §1

SRPK2(h) = SRPK2(h) (Homo sapiens (Human), UniProt P78362); experiment: Kinase Profiler 10 μM panel
Method: The experimental method was as follows: the small molecule compound to be tested (0.001-10 μM), the protein kinase to be tested were incubated with a buffer containing substrate, 10 mM magnesium acetate, and [γ-^33P-ATP], the reaction was started by adding Mg\TPmix, after incubation for a period of time at room temperature, a 3% phosphate solution was added to the buffer to stop the reaction. Subsequently, 10 μL of the reaction mixture was quantitatively pipetted onto P30 filter paper, which was washed three times with 75 mM phosphate solution and then once with methanol. The P30 filter paper was air-dried and scintillation fluid was added for scintillation counting.

PRK1(h) = PRK1(h) (Homo sapiens (Human), UniProt Q16512); experiment: Kinase Profiler 10 μM panel
Method: as §1

PhKγ1(h) = PhKγ1(h) (Homo sapiens (Human), UniProt Q16816); experiment: Kinase Profiler 10 μM panel
Method: as §1

TLK2(h) = TLK2(h) (Homo sapiens (Human), UniProt Q86UE8); experiment: Kinase Profiler 10 μM panel
Method: as §1

Aurora-A(h) = Aurora-A(h) (Homo sapiens (Human), UniProt O14965); experiment: Kinase Profiler 10 μM panel
Method: as §1

ZAP-70(h) = ZAP-70(h) (Homo sapiens (Human), UniProt P43403); experiment: Kinase Profiler 10 μM panel
Method: as §1

HT-29 cells = experiment: Protection against programmed necrosis of HT-29 cells (TNF α/Smac mimetic/Z-VAD-FMK, CCK8); assay type: cell-based; settings: Homo sapiens
PKCβII(h) = PKCβII(h) (Homo sapiens (Human), UniProt P05771); experiment: Kinase Profiler 10 μM panel
Method: as §1

EGFR(L858R)(h) = EGFR(L858R)(h) (Homo sapiens (Human), UniProt P00533, L858R); experiment: Kinase Profiler 10 μM panel
Method: as §1

[1] = TNF α/Smac mimetic/Z-VAD-FMK induced 24 h, CCK8, read-out: HT-29 (EC50)
[2] = TSZ-induced, FIG. 3, read-out: EC50 value, programmed necrosis model of HT-29

IKKϵ(h), sequence (Q14164 whole entry): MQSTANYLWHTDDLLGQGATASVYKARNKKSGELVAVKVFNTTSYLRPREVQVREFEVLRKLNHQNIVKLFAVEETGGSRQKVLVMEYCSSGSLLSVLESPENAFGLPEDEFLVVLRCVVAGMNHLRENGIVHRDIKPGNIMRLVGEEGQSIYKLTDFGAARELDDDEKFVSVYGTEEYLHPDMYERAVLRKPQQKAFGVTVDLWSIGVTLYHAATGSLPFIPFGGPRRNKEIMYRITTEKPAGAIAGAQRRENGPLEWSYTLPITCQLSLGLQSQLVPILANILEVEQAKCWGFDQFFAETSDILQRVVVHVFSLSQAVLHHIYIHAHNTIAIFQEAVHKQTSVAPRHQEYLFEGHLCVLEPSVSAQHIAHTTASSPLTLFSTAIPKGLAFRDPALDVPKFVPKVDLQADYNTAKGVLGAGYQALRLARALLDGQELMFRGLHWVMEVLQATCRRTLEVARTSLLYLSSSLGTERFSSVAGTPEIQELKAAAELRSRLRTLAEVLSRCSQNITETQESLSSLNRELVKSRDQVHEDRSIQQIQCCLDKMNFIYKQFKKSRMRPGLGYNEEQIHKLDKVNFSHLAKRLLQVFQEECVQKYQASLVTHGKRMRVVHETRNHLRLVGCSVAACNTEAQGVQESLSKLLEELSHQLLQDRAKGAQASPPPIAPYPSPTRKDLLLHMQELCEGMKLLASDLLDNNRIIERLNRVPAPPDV
ROCK-II(h), sequence (O75116 whole entry): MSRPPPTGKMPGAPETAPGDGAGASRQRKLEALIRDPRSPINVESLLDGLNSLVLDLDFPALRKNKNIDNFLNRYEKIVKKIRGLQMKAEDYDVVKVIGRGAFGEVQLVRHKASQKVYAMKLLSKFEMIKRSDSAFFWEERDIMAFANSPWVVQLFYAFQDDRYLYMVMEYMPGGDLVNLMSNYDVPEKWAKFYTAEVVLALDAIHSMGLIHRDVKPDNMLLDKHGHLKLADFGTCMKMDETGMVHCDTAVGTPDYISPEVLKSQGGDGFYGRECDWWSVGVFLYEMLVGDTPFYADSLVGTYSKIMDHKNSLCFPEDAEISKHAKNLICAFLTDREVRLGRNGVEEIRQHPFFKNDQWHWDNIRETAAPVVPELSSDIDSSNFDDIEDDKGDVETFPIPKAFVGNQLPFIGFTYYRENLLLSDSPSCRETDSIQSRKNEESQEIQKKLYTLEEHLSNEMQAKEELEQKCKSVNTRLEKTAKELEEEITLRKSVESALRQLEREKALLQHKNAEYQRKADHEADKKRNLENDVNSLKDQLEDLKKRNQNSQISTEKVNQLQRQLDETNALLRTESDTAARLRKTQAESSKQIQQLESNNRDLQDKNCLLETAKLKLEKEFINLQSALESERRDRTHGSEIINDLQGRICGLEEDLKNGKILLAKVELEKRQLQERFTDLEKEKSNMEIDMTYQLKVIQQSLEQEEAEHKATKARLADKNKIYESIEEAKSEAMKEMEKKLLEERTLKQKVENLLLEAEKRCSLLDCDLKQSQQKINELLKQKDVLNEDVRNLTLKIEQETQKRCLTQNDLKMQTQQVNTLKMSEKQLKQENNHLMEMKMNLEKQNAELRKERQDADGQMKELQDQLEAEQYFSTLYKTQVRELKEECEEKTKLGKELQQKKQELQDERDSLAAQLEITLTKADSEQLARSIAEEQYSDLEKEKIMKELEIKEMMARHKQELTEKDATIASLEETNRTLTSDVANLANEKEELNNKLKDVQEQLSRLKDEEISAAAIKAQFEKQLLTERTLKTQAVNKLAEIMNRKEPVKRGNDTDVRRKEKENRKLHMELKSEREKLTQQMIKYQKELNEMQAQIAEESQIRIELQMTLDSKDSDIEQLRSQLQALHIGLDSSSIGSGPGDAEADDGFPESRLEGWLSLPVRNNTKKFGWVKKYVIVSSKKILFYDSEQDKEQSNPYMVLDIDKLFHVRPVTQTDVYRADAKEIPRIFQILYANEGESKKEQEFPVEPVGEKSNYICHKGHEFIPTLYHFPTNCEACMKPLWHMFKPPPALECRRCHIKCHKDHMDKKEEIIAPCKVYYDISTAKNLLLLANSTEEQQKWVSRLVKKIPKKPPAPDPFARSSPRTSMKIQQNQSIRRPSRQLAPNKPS
CaMKK2(h), sequence (Q96RR4 whole entry): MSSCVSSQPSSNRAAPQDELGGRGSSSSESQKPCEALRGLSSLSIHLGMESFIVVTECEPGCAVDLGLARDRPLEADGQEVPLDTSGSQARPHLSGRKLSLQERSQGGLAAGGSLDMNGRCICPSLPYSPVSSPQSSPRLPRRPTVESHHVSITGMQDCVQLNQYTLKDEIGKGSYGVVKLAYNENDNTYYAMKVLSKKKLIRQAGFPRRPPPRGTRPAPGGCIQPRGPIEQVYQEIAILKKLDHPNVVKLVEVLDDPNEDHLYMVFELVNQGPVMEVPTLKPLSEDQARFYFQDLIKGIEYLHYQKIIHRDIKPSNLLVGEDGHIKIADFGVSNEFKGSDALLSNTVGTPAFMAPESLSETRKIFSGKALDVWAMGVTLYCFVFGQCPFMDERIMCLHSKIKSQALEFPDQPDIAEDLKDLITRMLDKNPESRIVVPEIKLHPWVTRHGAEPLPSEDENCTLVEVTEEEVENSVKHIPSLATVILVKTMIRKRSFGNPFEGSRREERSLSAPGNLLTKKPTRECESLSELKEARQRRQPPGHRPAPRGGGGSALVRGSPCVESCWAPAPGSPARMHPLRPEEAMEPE
SAPK3(h), sequence (P53778 whole entry): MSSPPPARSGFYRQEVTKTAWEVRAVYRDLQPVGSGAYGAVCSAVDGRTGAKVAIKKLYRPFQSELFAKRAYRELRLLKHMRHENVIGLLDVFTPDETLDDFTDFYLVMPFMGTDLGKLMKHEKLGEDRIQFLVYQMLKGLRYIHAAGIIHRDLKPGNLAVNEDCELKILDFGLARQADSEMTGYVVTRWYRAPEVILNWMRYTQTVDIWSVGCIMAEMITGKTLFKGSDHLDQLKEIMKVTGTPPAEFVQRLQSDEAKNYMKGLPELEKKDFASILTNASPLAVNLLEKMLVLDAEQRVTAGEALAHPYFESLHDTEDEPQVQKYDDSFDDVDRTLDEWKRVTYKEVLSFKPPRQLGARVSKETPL
ZAP-70(h), sequence (P43403 whole entry): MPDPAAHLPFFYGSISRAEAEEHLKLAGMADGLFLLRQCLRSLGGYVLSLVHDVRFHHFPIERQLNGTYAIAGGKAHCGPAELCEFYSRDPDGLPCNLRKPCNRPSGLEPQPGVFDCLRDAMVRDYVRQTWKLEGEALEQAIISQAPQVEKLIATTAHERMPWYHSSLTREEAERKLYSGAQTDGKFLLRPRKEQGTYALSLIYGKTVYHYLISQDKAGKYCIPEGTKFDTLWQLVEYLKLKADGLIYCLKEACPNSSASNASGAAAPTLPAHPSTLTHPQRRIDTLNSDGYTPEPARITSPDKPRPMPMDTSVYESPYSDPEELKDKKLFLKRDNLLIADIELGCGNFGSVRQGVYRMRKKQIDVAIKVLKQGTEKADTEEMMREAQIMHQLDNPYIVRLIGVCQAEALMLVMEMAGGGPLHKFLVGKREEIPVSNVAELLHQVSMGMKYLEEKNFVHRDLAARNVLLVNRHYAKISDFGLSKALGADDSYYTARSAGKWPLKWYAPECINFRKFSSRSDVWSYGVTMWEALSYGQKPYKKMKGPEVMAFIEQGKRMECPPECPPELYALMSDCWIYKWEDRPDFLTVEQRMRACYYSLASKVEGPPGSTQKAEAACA
Aurora-A(h), sequence (O14965 whole entry): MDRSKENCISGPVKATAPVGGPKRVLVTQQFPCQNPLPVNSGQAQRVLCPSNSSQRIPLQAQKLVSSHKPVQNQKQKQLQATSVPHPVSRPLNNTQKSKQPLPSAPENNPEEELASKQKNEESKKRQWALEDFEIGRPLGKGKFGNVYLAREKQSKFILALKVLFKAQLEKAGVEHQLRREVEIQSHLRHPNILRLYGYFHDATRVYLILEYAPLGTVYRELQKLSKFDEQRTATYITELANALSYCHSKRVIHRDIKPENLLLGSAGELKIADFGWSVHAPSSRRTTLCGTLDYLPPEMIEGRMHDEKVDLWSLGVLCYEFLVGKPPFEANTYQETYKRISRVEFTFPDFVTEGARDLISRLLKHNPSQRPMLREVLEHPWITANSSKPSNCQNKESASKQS
BTK(h), sequence (Q06187 whole entry): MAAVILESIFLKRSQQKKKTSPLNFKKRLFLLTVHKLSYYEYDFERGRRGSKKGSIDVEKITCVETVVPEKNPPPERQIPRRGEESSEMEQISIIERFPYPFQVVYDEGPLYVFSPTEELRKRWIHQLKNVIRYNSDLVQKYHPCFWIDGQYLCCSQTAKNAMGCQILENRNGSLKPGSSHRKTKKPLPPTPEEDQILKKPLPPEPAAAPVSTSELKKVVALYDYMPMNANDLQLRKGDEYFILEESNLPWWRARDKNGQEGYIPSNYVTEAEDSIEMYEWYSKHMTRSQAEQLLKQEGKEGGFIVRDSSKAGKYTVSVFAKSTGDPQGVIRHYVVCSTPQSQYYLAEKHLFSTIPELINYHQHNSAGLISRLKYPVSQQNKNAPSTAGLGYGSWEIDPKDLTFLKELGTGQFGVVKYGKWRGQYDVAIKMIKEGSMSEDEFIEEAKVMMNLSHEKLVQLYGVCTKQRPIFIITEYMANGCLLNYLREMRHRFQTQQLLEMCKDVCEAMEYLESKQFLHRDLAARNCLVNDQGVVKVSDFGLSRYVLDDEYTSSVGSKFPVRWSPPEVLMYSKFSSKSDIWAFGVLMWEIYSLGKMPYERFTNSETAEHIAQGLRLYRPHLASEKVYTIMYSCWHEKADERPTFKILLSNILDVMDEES

For `C[C@H](NC(=O)c1c[nH]c2ccc(-c3ccc4nc(NC(=O)C5CC5)sc4c3)cc12)c1cccc(F)c1` [Compound 34, (S)-5-(2-(cyclopropanecarboxamido)benzo[d]thiazol-6-yl)-N-(1-(3-fluorophenyl)ethyl)-1H-indole-3-carboxamide], the Inhibition ratio (STK32C(h)) was 3%, the Inhibition ratio (ULK1(h)) was 11% and the Inhibition ratio (CaMKK2(h)) was 34%. For the same compound, the Inhibition ratio (BTK(h)) was 15%, the Inhibition ratio (MEK2(h)) was 8% and the Inhibition ratio (EGFR(L861Q)(h)) was 49%. For the same compound, the Inhibition ratio (DYRK3(h)) was 48%, the Inhibition ratio (MSK2(h)) was 23% and the Inhibition ratio (MKK4(m)) was 9%. The Inhibition ratio (Met(D1246N)(h)) was 86%, the Inhibition ratio (IKKϵ(h)) was 19% and the Inhibition ratio (MAPKAP-K2(h)) was −7%. For the same compound, the Inhibition ratio (EphB1(h)) was 45%, the Inhibition ratio (DDR2(h)) was 76% and the Inhibition ratio (Hck(h)) was 37%. The Inhibition ratio (HRI(h)) was −3%, the Inhibition ratio (SAPK3(h)) was 84% and the Inhibition ratio (ROCK-II(h)) was 11%. It also gave an Inhibition ratio (NEK2(h)) of 21%, an Inhibition ratio (SRPK2(h)) of 17% and an Inhibition ratio (PRK1(h)) of 26%. For the same compound, the Inhibition ratio (PhKγ1(h)) was 16%, the Inhibition ratio (TLK2(h)) was 5% and the Inhibition ratio (Aurora-A(h)) was 37%. It also gave an Inhibition ratio (ZAP-70(h)) of 8%, an EC50 (HT-29 cells; [1]) of less than 1 nM and an EC50 (HT-29 cells; [2]) of 0.117 nM. For the same compound, the Inhibition ratio (PKCβII(h)) was 7% and the Inhibition ratio (EGFR(L858R)(h)) was 65%.

`C[C@H](NC(=O)c1cn(C)c2ccc(-c3ccn4nc(NC(=O)C5CC5)nc4c3)cc12)c1cccc(F)c1` [Compound 94, (S)-5-(2-(cyclopropanecarboxamido)-[1,2,4]triazolo[1,5-a]pyridin-7-yl)-N-(1-(3-fluorophenyl)ethyl)-1-methyl-1H-indole-3-carboxamide] showed an Inhibition ratio/% (STK32C(h)) of 22%, an Inhibition ratio/% (ULK1(h)) of 45% and an Inhibition ratio/% (CaMKK2(h)) of 63%. The Inhibition ratio/% (BTK(h)) was 65%, the Inhibition ratio/% (MEK2(h)) was 13% and the Inhibition ratio/% (EGFR(L861Q)(h)) was 75%. It also gave an Inhibition ratio/% (DYRK3(h)) of 10%, an Inhibition ratio/% (MSK2(h)) of 9% and an Inhibition ratio/% (MKK4(m)) of 27%. It also gave an Inhibition ratio/% (Met(D1246N)(h)) of −11%, an Inhibition ratio/% (IKKϵ(h)) of −15% and an Inhibition ratio/% (MAPKAP-K2(h)) of −1%. The Inhibition ratio/% (EphB1(h)) was 1%, the Inhibition ratio/% (DDR2(h)) was 20% and the Inhibition ratio/% (Hck(h)) was −8%. The Inhibition ratio/% (HRI(h)) was −4%, the Inhibition ratio/% (SAPK3(h)) was 46% and the Inhibition ratio/% (ROCK-II(h)) was 7%. It also gave an Inhibition ratio/% (NEK2(h)) of 24%, an Inhibition ratio/% (SRPK2(h)) of −16% and an Inhibition ratio/% (PRK1(h)) of −12%. The Inhibition ratio/% (PhKγ1(h)) was −12%, the Inhibition ratio/% (TLK2(h)) was 25% and the Inhibition ratio/% (Aurora-A(h)) was −7%. It also gave an Inhibition ratio/% (ZAP-70(h)) of 1%, an EC50 (HT-29 cells; [1]) of less than 1 nM and an EC50 (HT-29 cells; [2]) of 0.012 nM. It also gave an Inhibition ratio/% (PKCβII(h)) of 10% and an Inhibition ratio/% (EGFR(L858R)(h)) of −5%.
